Experiments:
[1] = system: scopolamine-induced amnesic mice; assay: Y-Maze Paradigm, spontaneous alternation in scopolamine-induced amnesic model; format: in vivo, Balb/C mice; conditions: scopolamine 1 mg/kg i.p., n = 8
Source text: For assessment of acute toxicity of the flavones (F1–F5), animals (21 in number) were divided into groups of 3 animals each. The reported protocols by Lorke were followed with slight modification to perform tests in two phases. In the first phase, one (control) group of animals were given Tween-80 (2%), and oral doses of F1–F5 were given to the remaining groups, respectively, at various doses (mg/kg body weight). […] The animals were housed in plastic cages. After two weeks, the animals were sacrificed by euthanasia with isoflurane in a humane manner for assessment of the effects on total weight and weight of the vital organs. The biochemical parameters of blood and histological studies of vital organs (kidney and liver tissue) were also assessed. […] The preliminary pharmacological activity was assessed at various dose concentrations of F1–F5 (2.5–20 mg/kg b.w.) to determine the effective dose for assessment of cognitive function using animal models.
(§1) The animals in the control (normal) and scopolamine amnesic groups were administered vehicle (Tween-80, 2%) only. Treated animals received F1–F5 suspended in Tween-80 (2%) p.o. at their respective doses for a period of 4 weeks. […] For assessing behavioral effects using the Y-Maze Paradigm and novel object discrimination (NOD) task, scopolamine (1 mg/kg, i.p.) was given to the different groups, 30 min after the respective treatments, to induce memory impairment (amnesia) in mice. All of the tests were performed between 8:00 a.m. and 6:00 p.m. to avoid sham results in the performance of the animals.
Behavioral tasks on the Y-Maze Paradigm and “NOD” tasks were conducted in the 5th week of study to determine learning and memory functions. The apparatus arena was cleaned with 70% ethanol during the inter-trial interval to prevent a confounding error due to the influence of odor [20, 21].
The Y-Maze task is a non-invasive and reliable behavioral test that was used for memory assessment of spontaneous alternation for F1–F5 based on previously reported protocols. A single session of Y-Maze was used to record the spontaneous alternation behavior of the animals to determine exploratory behavior and instant memory functioning. The apparatus was made of three arms in a “Y” shape (35 cm × 8 cm × 15 cm) with an equilateral triangular central area. In brief, each of the mice, previously naive to the maze, was placed at the terminal end of one arm. The animals were allowed to move and explore freely for 8 min through the maze. The number of arm entries was noted. One arm entry was considered when the hind paws of the animal were completely placed inside the arm, and the series of arm entries were documented. The spontaneous alternation in percent was calculated.

[2] = molecular target: T1, AChE (electric eel type-VI-S) (Electrophorus electricus, UniProt O42275); assay: biochemical; conditions: 25 °C, triplicate
T1 construct: purchased Sigma-Aldrich (Taufkirchen, Germany)
Method: (§2) Synthetic flavonoids F1–F5 previously synthesized by our group were used in the study.
(§3) For the determination of acetylcholinesterase inhibitory potentials, AChE and BuChE were used. […] To the tube were added DTNB (100 µL) and buffer (2.4 mL). The tube was incubated at 25 °C for 5 min as pre-incubation. The reaction was started by adding ATChI (40 µL), and the mixture was incubated at 25 °C for 20 min. The absorbance at 412 nm was measured spectrophotometrically in triplicate. […] The data were recorded in triplicate, and IC50 was calculated.

[3] = molecular target: T2, BuChE (equine serum lyophilized) (Equus caballus, UniProt P81908); assay: biochemical; conditions: triplicate; read-out: BChE IC50 (converted)
T2 construct: purchased Sigma-Aldrich (Taufkirchen, Germany); host or cells: equine serum
Method: as §2, §3

[4] = system: brains of scopolamine-induced amnesic mice; assay: Antioxidant enzyme activities and oxidative stress markers in brain homogenate; format: in vivo, Balb/C mice; conditions: n = 8
Method: as §1
The brain was extracted, and a homogenate (10% w/v) in 0.1 M of phosphate buffer (pH 7.4) was prepared by centrifugation for the assessment of brain oxidative status and estimating brain acetylcholinesterase activity. Catalase (CAT), superoxide dismutase (SOD), glutathione (GSH) and level of lipid peroxidation (malondialdehyde, MDA) were quantified as oxidative stress markers.

T1 sequence (O42275 24-633): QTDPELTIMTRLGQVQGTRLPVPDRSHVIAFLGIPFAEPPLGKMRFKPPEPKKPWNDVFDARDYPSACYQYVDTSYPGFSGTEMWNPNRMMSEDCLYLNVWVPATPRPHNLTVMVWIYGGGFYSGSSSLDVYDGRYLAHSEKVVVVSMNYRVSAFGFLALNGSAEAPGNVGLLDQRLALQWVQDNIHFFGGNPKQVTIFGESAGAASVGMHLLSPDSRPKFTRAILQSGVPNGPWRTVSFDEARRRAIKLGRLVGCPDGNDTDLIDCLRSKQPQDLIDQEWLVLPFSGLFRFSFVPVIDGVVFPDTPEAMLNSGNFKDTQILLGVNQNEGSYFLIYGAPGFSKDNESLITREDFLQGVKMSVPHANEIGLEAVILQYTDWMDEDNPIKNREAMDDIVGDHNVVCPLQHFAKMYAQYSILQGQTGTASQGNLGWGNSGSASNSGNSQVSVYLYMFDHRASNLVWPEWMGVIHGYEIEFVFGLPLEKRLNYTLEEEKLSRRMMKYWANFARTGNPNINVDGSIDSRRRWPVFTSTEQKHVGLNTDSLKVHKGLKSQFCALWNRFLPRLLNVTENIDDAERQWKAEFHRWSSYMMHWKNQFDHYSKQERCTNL
T2 sequence (P81908 whole entry): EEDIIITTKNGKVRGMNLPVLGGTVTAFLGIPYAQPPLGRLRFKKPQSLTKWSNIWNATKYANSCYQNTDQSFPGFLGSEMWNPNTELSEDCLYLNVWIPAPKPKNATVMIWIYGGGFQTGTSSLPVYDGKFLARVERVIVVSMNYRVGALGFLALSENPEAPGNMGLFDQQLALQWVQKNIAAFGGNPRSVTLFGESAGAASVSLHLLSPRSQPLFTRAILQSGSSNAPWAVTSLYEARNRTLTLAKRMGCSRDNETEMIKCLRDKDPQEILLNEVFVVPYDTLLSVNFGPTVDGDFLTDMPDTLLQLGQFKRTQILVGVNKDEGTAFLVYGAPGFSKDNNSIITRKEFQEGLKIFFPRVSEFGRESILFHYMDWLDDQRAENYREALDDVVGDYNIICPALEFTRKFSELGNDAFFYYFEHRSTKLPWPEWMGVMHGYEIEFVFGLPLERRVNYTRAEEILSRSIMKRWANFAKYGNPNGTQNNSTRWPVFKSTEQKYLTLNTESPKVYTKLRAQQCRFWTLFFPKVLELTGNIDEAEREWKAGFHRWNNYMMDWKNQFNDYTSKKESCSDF

Compound	Spontaneous Alternation Performance ([1]; 7.5 mg/kg b.w. p.o. 4 weeks)	Spontaneous Alternation Performance ([1]; 15 mg/kg b.w. p.o. 4 weeks)	IC50 [2]	IC50 [3]	CAT ([4]; 7.5 mg/kg b.w.)	GSH ([4]; 7.5 mg/kg b.w.)	MDA ([4]; 7.5 mg/kg b.w.)	SOD ([4]; 7.5 mg/kg b.w.)	CAT ([4]; 15 mg/kg b.w.)	GSH ([4]; 15 mg/kg b.w.)	MDA ([4]; 15 mg/kg b.w.)	SOD ([4]; 15 mg/kg b.w.)
O=c1cc(-c2ccc(Cl)c(Cl)c2)oc2ccccc12 [Compound F4]	57.92 ± 1.41 %	66.70 ± 1.63 %	386 µM	418 µM	22.21 ± 1.40 U/mg of Protein	36.21 ± 1.35 μg/mg of Protein	15.74 ± 1.21 nmol/mg Protein	9.30 ± 1.41 U/mg of Protein	23.39 ± 1.32 U/mg of Protein	38.30 ± 1.40 μg/mg of Protein	15.01 ± 1.37 nmol/mg Protein	9.71 ± 1.56 U/mg of Protein
O=c1cc(-c2cccc(Cl)c2Cl)oc2ccccc12 [Compound F3]	59.61 ± 1.61 %	65.78 ± 1.57 %	434 µM	505 µM	22.97 ± 1.71 U/mg of Protein	35.61 ± 1.55 μg/mg of Protein	16.37 ± 1.13 nmol/mg Protein	9.19 ± 1.21 U/mg of Protein	24.50 ± 1.41 U/mg of Protein	36.98 ± 1.66 μg/mg of Protein	15.94 ± 1.65 nmol/mg Protein	9.41 ± 1.29 U/mg of Protein

Source: paper PMC9221371, “Flavonoid Derivatives as Potential Cholinesterase Inhibitors in Scopolamine-Induced Amnesic Mice: An In Vitro, In Vivo and Integrated Computational Approach” (Brain Sciences, 2022)
